Legend:
Format in all cases: in vivo
Conditions in all cases: evaluated after 13 days
[1] = test system: Amaranthus retoflexus (AMARE); experiment: Post-emergence herbicidal glasshouse test (Table B1)
In short: (§1)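 Damage was rated 13 days after treatment as percentage injury, binned on a five-point scale (5=80-100%; 4=60-79%; 3=40-59%; 2=20-39%; 1=0-19%). Plants in soil pots were sprayed at 500 g/h unless otherwise indicated, pre-emergence after one day or post-emergence after 8 days of cultivation.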

[2] = test system: Ipomoea hederacea (IPOHE); experiment: as above
In short: as §1

[3] = test system: Abutilon theophrasti (ABUTH); experiment: as above
In short: as §1

Setaria faberi (SETFA) [4] = experiment: as above
In short: as §1

[5] = test system: Echinochloa crus-galh (ECHCG); experiment: as above
In short: as §1

[6] = test system: Amaranthus retoflexus (AMARE); experiment: Pre-emergence herbicidal glasshouse test (Table B1)
In short: as §1

[7] = test system: Ipomoea hederacea (IPOHE); experiment: as above
In short: as §1

[8] = test system: Abutilon theophrasti (ABUTH); experiment: as above
In short: as §1

Setaria faberi (SETFA) [9] = experiment: as above
In short: as §1

[10] = test system: Echinochloa crus-galh (ECHCG); experiment: as above
In short: as §1

Structure (SMILES) | POST Application AMARE, percentage damage on five-point scale ([1]; applied at 500 g/h) | POST Application IPOHE, percentage damage on five-point scale ([2]; applied at 500 g/h) | POST Application ABUTH, percentage damage on five-point scale ([3]; applied at 500 g/h) | POST Application SETFA, percentage damage on five-point scale (Setaria faberi (SETFA) [4]; applied at 500 g/h) | POST Application ECHCG, percentage damage on five-point scale ([5]; applied at 500 g/h) | PRE Application AMARE, percentage damage on five-point scale ([6]; applied at 500 g/h) | PRE Application IPOHE, percentage damage on five-point scale ([7]; applied) | PRE Application ABUTH, percentage damage on five-point scale ([8]; applied at 500 g/h) | PRE Application SETFA, percentage damage on five-point scale (Setaria faberi (SETFA) [9]; applied at 500 g/h) | PRE Application ECHCG, percentage damage on five-point scale ([10]; applied at 500 g/h) | POST Application AMARE, percentage damage on five-point scale ([1]; applied at 125 g/ha) | POST Application IPOHE, percentage damage on five-point scale ([2]; applied at 125 g/ha) | POST Application ABUTH, percentage damage on five-point scale ([3]; applied at 125 g/ha) | POST Application SETFA, percentage damage on five-point scale (Setaria faberi (SETFA) [4]; applied at 125 g/ha) | POST Application ECHCG, percentage damage on five-point scale ([5]; applied at 125 g/ha) | PRE Application AMARE, percentage damage on five-point scale ([6]; applied at 125 g/ha) | PRE Application IPOHE, percentage damage on five-point scale ([7]; applied at 125 g/ha) | PRE Application ABUTH, percentage damage on five-point scale ([8]; applied at 125 g/ha) | PRE Application SETFA, percentage damage on five-point scale (Setaria faberi (SETFA) [9]; applied at 125 g/ha) | PRE Application ECHCG, percentage damage on five-point scale ([10]; applied at 125 g/ha)
CN(C)c1c(OC(F)(F)F)ccc(C(=O)Nc2nnnn2C)c1Cl [Compound 1.001] | 5 (5=80-100%) | 5 (5=80-100%) | 5 (5=80-100%) | 5 (5=80-100%) | 5 (5=80-100%) | 5 (5=80-100%) | 5 (5=80-100%) | 5 (5=80-100%) | 5 (5=80-100%) | 5 (5=80-100%) |  |  |  |  |  |  |  |  |  | 
CCCn1nnnc1NC(=O)c1ccc(OC(F)(F)F)c(NC(C)=O)c1Cl [Compound 1.129] | 5 (5=80-100%) | 5 (5=80-100%) | 5 (5=80-100%) | 5 (5=80-100%) | 5 (5=80-100%) | 5 (5=80-100%) | 2 (2=20-39%) | 5 (5=80-100%) | 1 (1=0-19%) | 4 (4=60-79%) |  |  |  |  |  |  |  |  |  | 
Cc1cc(C(=O)Nc2c(OC(F)F)ccc(C(=O)Nc3nnnn3C)c2Cl)no1 [Compound 1.044] |  |  |  |  |  |  |  |  |  |  | 5 (5=80-100%) | 4 (4=60-79%) | 3 (3=40-59%) | 3 (3=40-59%) | 2 (2=20-39%) | 4 (4=60-79%) | 1 (1=0-19%) | 4 (4=60-79%) | 2 (2=20-39%) | 2 (2=20-39%)
CCC(=O)Nc1c(OC(F)F)ccc(C(=O)Nc2nnnn2C)c1C [Compound 1.126] |  |  |  |  |  |  |  |  |  |  | 5 (5=80-100%) | 4 (4=60-79%) | 5 (5=80-100%) | 5 (5=80-100%) | 5 (5=80-100%) | 5 (5=80-100%) | 3 (3=40-59%) | 5 (5=80-100%) | 2 (2=20-39%) | 5 (5=80-100%)
COc1ccc(C(=O)Nc2c(OC(F)F)ccc(C(=O)Nc3nnnn3C)c2Cl)cc1 [Compound 1.101] |  |  |  |  |  |  |  |  |  |  | 4 (4=60-79%) | 4 (4=60-79%) | 4 (4=60-79%) | 4 (4=60-79%) | 5 (5=80-100%) | 4 (4=60-79%) | 2 (2=20-39%) | 4 (4=60-79%) | 4 (4=60-79%) | 1 (1=0-19%)
COc1ccc(C(=O)Nc2nnnn2C)c(Cl)c1NC(C)=O [Compound 1.030, 3-acetamido-2-chloro-4-methoxy-N-(1-methyltetrazol-5-yl)benzamide] | 5 (5=80-100%) | 4 (4=60-79%) | 5 (5=80-100%) | 5 (5=80-100%) | 5 (5=80-100%) | 5 (5=80-100%) | 3 (3=40-59%) | 5 (5=80-100%) | 3 (3=40-59%) | 3 (3=40-59%) |  |  |  |  |  |  |  |  |  | 
Cn1nnnc1NC(=O)c1ccc(OC(F)(F)F)c(NC(=O)C2CCC2)c1Cl [Compound 1.112] | 5 (5=80-100%) | 5 (5=80-100%) | 5 (5=80-100%) | 5 (5=80-100%) | 5 (5=80-100%) | 5 (5=80-100%) | 1 (1=0-19%) | 4 (4=60-79%) | 1 (1=0-19%) | 5 (5=80-100%) |  |  |  |  |  |  |  |  |  | 
Cn1nnnc1NC(=O)c1ccc(OC(F)(F)F)c(NC(=O)CC2CC2)c1Cl [Compound 1.034] | 5 (5=80-100%) | 5 (5=80-100%) | 5 (5=80-100%) | 5 (5=80-100%) | 5 (5=80-100%) | 5 (5=80-100%) | 4 (4=60-79%) | 5 (5=80-100%) | 5 (5=80-100%) | 5 (5=80-100%) |  |  |  |  |  |  |  |  |  | 
CC(F)C(=O)Nc1c(OCC(F)(F)F)ccc(C(=O)Nc2nnnn2C)c1Cl (stereo not shown) [Compound 1.016, 2-chloro-3-(2-fluoropropanoylamino)-N-(1-methyltetrazol-5-yl)-4-(2,2,2-trifluoroethoxy)benzamide] | 5 (5=80-100%) | 5 (5=80-100%) | 5 (5=80-100%) | 5 (5=80-100%) | 5 (5=80-100%) | 5 (5=80-100%) | 5 (5=80-100%) | 5 (5=80-100%) | 5 (5=80-100%) | 5 (5=80-100%) |  |  |  |  |  |  |  |  |  | 
COc1ccc(C(=O)Nc2nnnn2C)c(Cl)c1NC(=O)C1CC1 [Compound 1.029] | 5 (5=80-100%) | 5 (5=80-100%) | 5 (5=80-100%) | 5 (5=80-100%) | 5 (5=80-100%) | 5 (5=80-100%) | 4 (4=60-79%) | 5 (5=80-100%) | 5 (5=80-100%) | 5 (5=80-100%) |  |  |  |  |  |  |  |  |  | 
